From PubChem BioAssay (NCI) come the findings set out here.

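Following 48 hours of exposure in 96-well plates, responses at five concentrations were used to interpolate endpoints linearly. The concentration for full growth arrest is given as TGI.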

Test systems include M14 melanoma; SK-MEL-28 melanoma; SK-MEL-5 melanoma; NCI-H226 lung; MCF7 breast; SF-539 CNS; HL-60(TB) leukemia; SK-OV-3 ovarian; HCT-116 colon; RPMI-8226 leukemia; NCI-H460 lung; MDA-N; SNB-19 CNS; LOX IMVI melanoma.
What all share (assay): NCI tumour cell line growth inhibition, 48 h

Consider `CCN(C(=O)N[C@H](C(=O)N[C@@H](C)C(=O)OC)C(C)C)c1ccccc1`, for which the TGI in the assay on M14 melanoma is above 100 µM; with SK-MEL-28 melanoma, above 100 µM; in the assay on SK-MEL-5 melanoma, above 100 µM; with NCI-H226 lung it was above 100 µM; in the assay with MCF7 breast it was above 100 µM; in the assay on SF-539 CNS it was 48.4 µM. In addition, the TGI with HL-60(TB) leukemia is above 100 µM; in the assay on SK-OV-3 ovarian, above 100 µM; in the assay with HCT-116 colon, 68.6 µM; in the assay on RPMI-8226 leukemia, above 100 µM; in the assay on NCI-H460 lung it was 66.2 µM; with MDA-N, above 100 µM. Also, the TGI in the assay with SNB-19 CNS and in the assay on LOX IMVI melanoma was above 100 µM throughout.

Consider `Nc1n[nH]c2ccccc12`, for which the TGI with M14 melanoma, in the assay on SK-MEL-28 melanoma, in the assay with SK-MEL-5 melanoma, in the assay with NCI-H226 lung, with MCF7 breast and with SF-539 CNS was above 100 µM throughout. Moreover, the TGI with HL-60(TB) leukemia, in the assay with SK-OV-3 ovarian, in the assay on HCT-116 colon, in the assay on RPMI-8226 leukemia, in the assay on NCI-H460 lung and in the assay on MDA-N was above 100 µM throughout. The TGI with SNB-19 CNS and in the assay with LOX IMVI melanoma was above 100 µM each time.

Regarding `O=CN(O)CC(=O)O`, the TGI in the assay with M14 melanoma, in the assay on SK-MEL-28 melanoma, in the assay on SK-MEL-5 melanoma, in the assay with NCI-H226 lung, in the assay on MCF7 breast and in the assay with SF-539 CNS was above 100 µM each time. Besides, the TGI in the assay with HL-60(TB) leukemia, with SK-OV-3 ovarian, in the assay on HCT-116 colon, in the assay on RPMI-8226 leukemia, in the assay with NCI-H460 lung and in the assay with MDA-N was above 100 µM in each case. In addition, the TGI in the assay on SNB-19 CNS and with LOX IMVI melanoma was above 100 µM each time.

As for `CC(C)(C)OC(=O)c1ccc(NCc2cc(O)ccc2O)cc1`, the TGI in the assay on M14 melanoma was found to be 7.35 µM; with SK-MEL-28 melanoma it was 5.28 µM; in the assay with SK-MEL-5 melanoma it was 13.1 µM; in the assay with NCI-H226 lung it was 8.64 µM; with MCF7 breast, 18.4 µM; in the assay with SF-539 CNS, 2.73 µM. Further, the TGI in the assay with HL-60(TB) leukemia is 4.08 µM; in the assay with SK-OV-3 ovarian it was 44.3 µM; with HCT-116 colon, 16.1 µM; in the assay with RPMI-8226 leukemia, 13 µM; with NCI-H460 lung, above 73.8 µM; with MDA-N, 16.3 µM. Also, the TGI came out at 38.8 µM in the assay with SNB-19 CNS and 13.5 µM in the assay with LOX IMVI melanoma.

On to `COc1cc(-c2c3c(cc4c2OCO4)[C@@H](Nc2ccc4c(c2)Cc2cc(N[C@@H]5c6cc7c(cc6C(c6cc(OC)c(O)c(OC)c6)[C@H]6C(=O)OC[C@H]56)OCO7)ccc2-4)[C@H]2COC(=O)[C@@H]2C3)cc(OC)c1O` (some centres not stated), for which the TGI with M14 melanoma is 50.3 µM; in the assay with SK-MEL-28 melanoma, 70 µM; in the assay on SK-MEL-5 melanoma, 46.2 µM; with NCI-H226 lung, above 100 µM; in the assay on MCF7 breast, above 100 µM; in the assay with SF-539 CNS, 19 µM. Further, the TGI is above 100 µM with HL-60(TB) leukemia; 41.1 µM with SK-OV-3 ovarian; 57 µM with HCT-116 colon; above 100 µM with RPMI-8226 leukemia; above 100 µM with NCI-H460 lung; 34.3 µM in the assay with MDA-N. The TGI with SNB-19 CNS and with LOX IMVI melanoma was above 100 µM in each case.

With `CCOC(=O)c1ccc(C(=O)/C(C(=O)OC(C)(C)C)=C2\CCCN2C)n1C`, the TGI with M14 melanoma was above 100 µM; in the assay on SK-MEL-28 melanoma it was above 100 µM; in the assay with SK-MEL-5 melanoma it was 52.9 µM; with NCI-H226 lung it was above 100 µM; in the assay on MCF7 breast it was above 100 µM; with SF-539 CNS, above 100 µM. In addition, the TGI was 70.5 µM in the assay with HL-60(TB) leukemia; 95.1 µM with SK-OV-3 ovarian; above 100 µM with HCT-116 colon; above 100 µM with RPMI-8226 leukemia; above 100 µM in the assay with NCI-H460 lung; above 100 µM in the assay on MDA-N. Besides, the TGI with SNB-19 CNS and in the assay on LOX IMVI melanoma was above 100 µM in each case.

Turning to `O=S1(=O)c2ccccc2NC(=S)N1c1ccccc1`, the TGI in the assay with M14 melanoma, with SK-MEL-28 melanoma, with SK-MEL-5 melanoma, in the assay with NCI-H226 lung, in the assay with MCF7 breast and in the assay with SF-539 CNS was above 100 µM throughout. The TGI with HL-60(TB) leukemia is above 100 µM; in the assay with SK-OV-3 ovarian it was above 100 µM; with HCT-116 colon, above 100 µM; in the assay with RPMI-8226 leukemia, above 100 µM; in the assay with NCI-H460 lung, above 100 µM; with MDA-N it was above 80.9 µM. In addition, the TGI with SNB-19 CNS was above 100 µM; with LOX IMVI melanoma, above 66.1 µM.

Turning to `CC(O)(C(=O)N(O)c1ccc(Cl)cc1)c1ccc(Cl)cc1` (configuration not stated), the TGI was above 100 µM in the assay with M14 melanoma; above 100 µM in the assay on SK-MEL-28 melanoma; 48.9 µM in the assay on SK-MEL-5 melanoma; above 100 µM in the assay with NCI-H226 lung; above 100 µM with MCF7 breast; above 100 µM in the assay with SF-539 CNS. Further, the TGI in the assay with HL-60(TB) leukemia was 35.9 µM; in the assay with SK-OV-3 ovarian, 97.5 µM; with HCT-116 colon, 96.1 µM; in the assay with RPMI-8226 leukemia, 37.3 µM; with NCI-H460 lung, above 100 µM; in the assay on MDA-N it was above 100 µM. Also, the TGI with SNB-19 CNS and in the assay with LOX IMVI melanoma was above 100 µM each time.

As to `COc1cc(/C=C/C(=O)O)ccc1OS(=O)(=O)O`, the TGI with M14 melanoma, in the assay on SK-MEL-28 melanoma, with SK-MEL-5 melanoma, in the assay with NCI-H226 lung, in the assay on MCF7 breast and with SF-539 CNS was above 100 µM in each case. Besides, the TGI in the assay on HL-60(TB) leukemia, in the assay with SK-OV-3 ovarian, in the assay on HCT-116 colon, with RPMI-8226 leukemia, in the assay with NCI-H460 lung and in the assay with MDA-N was above 100 µM throughout. Also, the TGI with SNB-19 CNS and in the assay with LOX IMVI melanoma was above 100 µM each time.

Consider `CCOC1NC(=O)c2ccccc21` (configuration not stated), for which the TGI in the assay with M14 melanoma, in the assay on SK-MEL-28 melanoma, in the assay on SK-MEL-5 melanoma, in the assay with NCI-H226 lung, with MCF7 breast and with SF-539 CNS was above 100 µM throughout. The TGI in the assay with HL-60(TB) leukemia, in the assay on SK-OV-3 ovarian, in the assay on HCT-116 colon, in the assay on RPMI-8226 leukemia, in the assay on NCI-H460 lung and in the assay with MDA-N was above 100 µM in each case. Further, the TGI with SNB-19 CNS and in the assay on LOX IMVI melanoma was above 100 µM in each case.

Turning to `O=C(/C=C1\C[C@H]2C=Nc3ccccc3C(=O)N2C1)NCCCCCNC(=O)/C=C1\C[C@H]2C=Nc3ccccc3C(=O)N2C1`, the TGI was 12.1 µM with M14 melanoma; 27.4 µM in the assay on SK-MEL-28 melanoma; above 51 µM in the assay with SK-MEL-5 melanoma; above 70.4 µM with NCI-H226 lung; 33.6 µM in the assay on MCF7 breast; above 49.9 µM in the assay with SF-539 CNS. Further, the TGI in the assay on HL-60(TB) leukemia is 6.13 µM; in the assay with SK-OV-3 ovarian it was 30.3 µM; in the assay on HCT-116 colon, 20.1 µM; in the assay with RPMI-8226 leukemia, above 72.7 µM; in the assay on NCI-H460 lung it was 36.6 µM; with MDA-N it was 21.5 µM. For the same compound, the TGI came out at 31.1 µM in the assay on SNB-19 CNS and 4.47 µM with LOX IMVI melanoma.

`COn1cc(CO)c2ccccc21`: the TGI was above 100 µM in the assay on M14 melanoma; above 100 µM with SK-MEL-28 melanoma; above 100 µM with SK-MEL-5 melanoma; 6.35 µM with NCI-H226 lung; above 100 µM with MCF7 breast; above 100 µM with SF-539 CNS. Also, the TGI in the assay with HL-60(TB) leukemia, in the assay on SK-OV-3 ovarian, with HCT-116 colon, with RPMI-8226 leukemia, with NCI-H460 lung and in the assay on MDA-N was above 100 µM throughout. Besides, the TGI in the assay on SNB-19 CNS and in the assay with LOX IMVI melanoma was above 100 µM each time.

With `Cc1ccsc1C(=S)Nc1ccc(Cl)c(C(=O)OC(C(C)C)C(C)C)c1`, the TGI in the assay on M14 melanoma is above 100 µM; in the assay with SK-MEL-28 melanoma it was above 100 µM; with SK-MEL-5 melanoma, 33 µM; in the assay on NCI-H226 lung it was above 100 µM; in the assay with MCF7 breast it was above 100 µM; in the assay on SF-539 CNS, above 100 µM. In addition, the TGI in the assay on HL-60(TB) leukemia is 31.5 µM; with SK-OV-3 ovarian it was above 100 µM; in the assay with HCT-116 colon it was 75.5 µM; in the assay on RPMI-8226 leukemia it was 45.1 µM; in the assay on NCI-H460 lung it was above 100 µM; in the assay with MDA-N, above 100 µM. The TGI in the assay with SNB-19 CNS amounted to 91.7 µM; in the assay with LOX IMVI melanoma, 55.3 µM.
